Assay results published in US9321756B2, “Azole compounds as PIM inhibitors” (priority 2011, dated 2016).
pIC50: −log10 of the molar value. Like-named read-outs stand apart in the source and are kept apart here.

What was measured:
[1] = target: full length recombinant Pim-2 (Homo sapiens (Human), UniProt Q9P1W9); assay: Pim enzyme assay (HTRF, phosphorylation of biotinylated-BAD (S112) peptide), Pim-2; format: biochemical; details: read-out: Pim2_IC50
[2] = target: full length recombinant Pim-1 (Homo sapiens (Human), UniProt P11309); assay: Pim enzyme assay (HTRF, phosphorylation of biotinylated-BAD (S112) peptide), Pim-1; format: biochemical
Sequence of full length recombinant Pim-1 (P11309 whole entry): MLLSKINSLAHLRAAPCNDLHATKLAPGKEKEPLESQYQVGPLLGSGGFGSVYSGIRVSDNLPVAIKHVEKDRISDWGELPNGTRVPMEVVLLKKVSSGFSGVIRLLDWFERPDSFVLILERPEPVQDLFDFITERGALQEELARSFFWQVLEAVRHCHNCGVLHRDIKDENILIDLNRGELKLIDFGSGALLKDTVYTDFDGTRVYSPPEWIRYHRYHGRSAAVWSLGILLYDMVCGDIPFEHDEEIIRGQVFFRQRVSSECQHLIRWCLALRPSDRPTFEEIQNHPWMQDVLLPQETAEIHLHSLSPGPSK

[3] = Pim-1 enzyme assay, read-out: Pim_1_IC50
[4] = HTRF, 10-point curve, high dose 1 uM, 2 h at RT, read-out: Pim_1_IC50

Sequence of full length recombinant Pim-2 (Q9P1W9 whole entry): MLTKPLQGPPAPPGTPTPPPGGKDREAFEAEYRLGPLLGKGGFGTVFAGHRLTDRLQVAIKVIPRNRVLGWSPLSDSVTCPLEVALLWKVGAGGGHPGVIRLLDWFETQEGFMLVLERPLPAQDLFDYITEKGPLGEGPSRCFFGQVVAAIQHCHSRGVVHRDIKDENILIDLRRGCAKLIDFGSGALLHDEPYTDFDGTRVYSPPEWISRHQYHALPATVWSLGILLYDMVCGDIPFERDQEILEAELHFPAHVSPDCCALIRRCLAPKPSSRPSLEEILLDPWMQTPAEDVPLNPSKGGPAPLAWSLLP

## CC(C)Cc1nnc(-c2ccc3[nH]cc(-c4cncc(C5CC5)n4)c3c2)o1 [Example 265, 3-(6-cyclopropyl-2-pyrazinyl)-5-(5-(2-methylpropyl)-1,3,4-oxadiazol-2-yl)-1H-indole]
[1]; Pim-2 enzyme assay
  pIC50: 7.29
[2]
  pIC50: 7.54

## Cc1cc(N)nc(-c2c[nH]c3ccc(-c4nnc(NC(C)(C)C)o4)cc23)n1 [Example 272, 2-(5-(5-(tert-butylamino)-1,3-4-oxadiazol-2-yl)-1H-indol-3-yl)-6-methyl-4-pyrimidinamine]
[1]; Pim-2 enzyme assay
  pIC50: 6.45
[2]; [3]
  pIC50: 6.98

## CC(C)Oc1cccc(-c2c[nH]c3ccc(-c4nc(N)no4)cc23)n1 [Example 68, 5-(3-(6-isopropoxypyridin-2-yl)-1H-indol-5-yl)-1,2,4-oxadiazol-3-amine]
[1]
  pIC50: 7.10
[2]; [3]
  pIC50: 7.37

## CC(C)Nc1nnc(-c2ccc3[nH]cc(NC(=O)c4ccncc4)c3c2)o1 [Example 304, N-(5-(5-((1-methylethyl)amino)-1,3,4-oxadiazol-2-yl)-1H-indol-3-yl)-4-pyridinecarboxamide]
[1]; HTRF, 10-point curve, high dose 1 uM, 45 min at RT
  pIC50: 6.94
[2]; [4]
  pIC50: 7.15

## CC(C)Cc1nnc(-c2ccc3[nH]cc(-c4nccc(C5CC5)n4)c3c2)o1 [Example 51, 2-(3-(4-cyclopropylpyrimidin-2-yl)-1H-indol-5-yl)-5-isobutyl-1,3,4-oxadiazole]
[1]; Pim-2 enzyme assay
  pIC50: 7.51
[2]; [3]
  pIC50: 7.03

## CC(=O)Nc1nc(-c2ccc3[nH]cc(-c4cncc(OC(C)C)n4)c3c2)no1 [Example 74, N-(3-(3-(6-isopropoxypyrazin-2-yl)-1H-indol-5-yl)-1,2,4-oxadiazol-5-yl)acetamide]
[1]; Pim-2 enzyme assay
  pIC50: < 6.00
[2]; [3]
  pIC50: 6.73

## CC(C)Nc1nnc(-c2ccc3[nH]cc(-c4ccc(C(N)=O)cn4)c3c2)o1 [Example 303, 6-(5-(5-((1-methylethyl)amino)-1,3,4-oxadiazol-2-yl)-1H-indol-3-yl)-3-pyridinecarboxamide]
[2]; [4]
  pIC50: 6.57

## CNc1nc(-c2ccc3[nH]cc(-c4cncc(OC(C)C)n4)c3c2)no1 [Example 72, 3-(3-(6-isopropoxypyrazin-2-yl)-1H-indol-5-yl)-N-methyl-1,2,4-oxadiazol-5-amine]
[2]; [3]
  pIC50: 7.16

## CC(C)Nc1nnc(-c2ccc3[nH]cc(-c4nc(C(N)=O)cc(C5CC5)n4)c3c2)o1 [Example 48, 6-cyclopropyl-2-(5-(5-(isopropylamino)-1,3,4-oxadiazol-2-yl)-1H-indol-3-yl)pyrimidine-4-carboxamide]
[2]; [3]
  pIC50: 8.60

## CC(C)Oc1cccc(-c2c[nH]c3ccc(-c4nsc(N)n4)cc23)n1 [Example 65, 3-(3-(6-isopropoxypyridin-2-yl)-1H-indol-5-yl)-1,2,4-thiadiazol-5-amine]
[2]; [3]
  pIC50: 6.47

## CC(C)Nc1nnc(-c2ccc3[nH]cc(-c4cccc(C(=O)NC5CC5)n4)c3c2)o1 [Example 294, N-cyclopropyl-6-(5-(5-((1-methylethyl)amino)-1,3,4-oxadiazol-2-yl)-1H-indol-3-yl)-2-pyridinecarboxamide]
[2]; [4]
  pIC50: 6.18

## CC(C)Nc1nnc(-c2ccc3[nH]cc(-c4cc(C(=O)N(C)C)ccc4F)c3c2)o1 [Example 302, 4-fluoro-N,N-dimethyl-3-(5-(5-((1-methylethyl)amino)-1,3,4-oxadiazol-2-yl)-1H-indol-3-yl)benzamide]
[2]; [4]
  pIC50: 6.54

## CNC(=O)c1ccc(-c2c[nH]c3ccc(-c4nnc(NC(C)C)o4)cc23)nc1 [Example 295, N-methyl-6-(5-(5-((1-methylethyl)amino)-1,3,4-oxadiazol-2-yl)-1H-indol-3-yl)-3-pyridinecarboxamide]
[2]; [4]
  pIC50: 6.24

## CC(C)Cn1cc(-c2c[nH]c3ccc(-c4nnc(N)o4)nc23)cn1 [Example 127, 5-(3-(1-(2-methylpropyl)-1H-pyrazol-4-yl)-1H-pyrrolo[3,2-b]pyridin-5-yl)-1,3,4-oxadiazol-2-amine]
[2]; [3]
  pIC50: 6.41

## CC(C)(C)Nc1nnc(-c2ccc3[nH]cc(-c4ncc(F)c(C5CC5)n4)c3c2)o1 [Example 56, N-tert-butyl-5-(3-(4-cyclopropyl-5-fluoropyrimidin-2-yl)-1H-indol-5-yl)-1,3,4-oxadiazol-2-amine]
[2]; [3]
  pIC50: 8.60
